Results reported in article PMC8041284, “Tunable Methacrylamides for Covalent Ligand Directed Release Chemistry” (Journal of the American Chemical Society, 2021).

Target: BTK (Homo sapiens, UniProt Q06187)
Experiment: biochemical
Conditions: read-out: BTK inhibition (%), 0.75 uM BTK, […] probe 3l, 15 min preincubation

Sequence of BTK (Q06187 402-655 limits assumed): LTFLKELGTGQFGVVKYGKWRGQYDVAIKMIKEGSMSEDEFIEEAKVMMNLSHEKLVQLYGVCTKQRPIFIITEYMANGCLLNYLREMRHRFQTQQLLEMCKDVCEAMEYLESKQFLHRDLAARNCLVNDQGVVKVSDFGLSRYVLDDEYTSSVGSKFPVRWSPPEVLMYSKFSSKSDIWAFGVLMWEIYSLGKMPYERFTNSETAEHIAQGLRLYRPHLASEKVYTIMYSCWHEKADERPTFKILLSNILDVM

inhibition at 10 µM [%] | Structure (SMILES)
18.5 | N#CNC(=NCCCCCCOc1ccc(Cl)cc1)Nc1ccncc1 [PCM-0215563]
-25.5 | CCCCCCOc1cc(C)c(O)c(C)c1C [PCM-0216088]
13.9 | Cc1cccc(-c2[nH]ncc2-c2ccc3ncccc3n2)n1 [PCM-0065277]
6.9 | COc1cc(O)c(C(=O)/C=C/c2ccccc2)c(OC)c1 [PCM-0216315]
-11.7 | CCNC(=O)[C@@H]1CCCN1C(=O)[C@H](CCCN=C(N)N)NC(=O)[C@H](CC(C)C)NC(=O)[C@@H](CC(C)C)NC(=O)[C@H](Cc1ccc(O)cc1)NC(=O)[C@H](CO)NC(=O)[C@H](Cc1c[nH]c2ccccc12)NC(=O)[C@H](Cc1cnc[nH]1)NC(=O)[C@@H]1CCC(=O)N1 [PCM-0214915]
-13.9 | CC12CCC(C1)C(C)(C)C2O (centres unmarked) [PCM-0216150]
-14.8 | CCOC(=O)CCC(=O)O[C@H]1[C@H](O[C@@H]2[C@@H](C)[C@H](O[C@H]3C[C@@](C)(OC)[C@@H](O)[C@H](C)O3)[C@@H](C)C(=O)O[C@H](CC)[C@@](C)(O)[C@H](O)[C@@H](C)C(=O)[C@H](C)C[C@@]2(C)O)O[C@H](C)C[C@@H]1N(C)C [PCM-0214733]
-25.5 | C/C=C(/C)C(=O)O[C@H]1c2cc(OC)c(OC)c(OC)c2-c2c(cc3c(c2OC)OCO3)C[C@H](C)[C@]1(C)O [PCM-0216333]
16.2 | COc1ccc(C[C@@H]2c3cc(Oc4cc(C[C@@H]5c6cc(O)c(OC)cc6CCN5C)ccc4O)c(OC)cc3CCN2C)cc1 [PCM-0216496]
21 | CC(C)=CCC[C@](C)(O[C@@H]1O[C@H](CO)[C@@H](O)[C@H](O)[C@H]1O)[C@H]1CC[C@]2(C)[C@@H]1[C@H](O)C[C@@H]1[C@@]3(C)CC[C@H](O[C@@H]4O[C@H](CO)[C@@H](O)[C@H](O)[C@H]4O[C@@H]4O[C@H](CO)[C@@H](O)[C@H](O)[C@H]4O)C(C)(C)[C@@H]3CC[C@]12C [PCM-0215020]
2.1 | CNC(=C[N+](=O)[O-])NCCSCc1csc(CN(C)C)n1 [PCM-0086495]
0 | O=c1[nH]cnc2c1ncn2[C@H]1C[C@H](O)[C@@H](CO)O1 [PCM-0214983]
-8.6 | O=S(=O)(O)CCSSCCS(=O)(=O)O [PCM-0090667]
-13.9 | c1cc2c(c3c1CC1c4cc5c(cc4CCN1C3)OCO5)OCO2 (centres unmarked) [PCM-0216476]
-11.6 | C=C(C)[C@@H]1CC[C@@]2(C)CCC(=O)C(C)=C2C1 [PCM-0216488]
-4.8 | CC(C)(C#N)c1ccc(N2C(=O)OCc3cnc4ccc(-c5cnc6ccccc6c5)cc4c32)cc1 [PCM-0215242]
84.1 | O=C(O)c1cc(O)c2c(c1)[C@@H]([C@H]1c3cc(C(=O)O)cc(O)c3C(=O)c3c(O[C@@H]4O[C@H](CO)[C@@H](O)[C@H](O)[C@H]4O)cccc31)c1cccc(O[C@@H]3O[C@H](CO)[C@@H](O)[C@H](O)[C@H]3O)c1C2=O [PCM-0086913]
-5.1 | CN(CC(=O)O)C(N)=NP(=O)(O)O [PCM-0215959]
-18.7 | CC1(C)CCC(C)(C)c2cc(NC(=O)c3ccc(C(=O)O)cc3)ccc21 [PCM-0214790]
45.1 | COc1cccc2c1C(=O)c1c(O)c3c(c(O)c1C2=O)C[C@@](O)(C(=O)CO)C[C@@H]3O[C@H]1C[C@H](N)[C@@H](O)[C@H](C)O1 [PCM-0090504]
9.3 | O=C(N[C@@H](c1ccccc1)[C@@H](O)C(=O)O)c1ccccc1 [PCM-0216301]
-8.6 | OCC(CO)N[C@H]1C[C@](O)(CO)[C@@H](O)[C@H](O)[C@H]1O [PCM-0214770]
-1.4 | CS(=O)(=O)OCCCCOS(C)(=O)=O [PCM-0085767]
30.4 | C[C@@H]1CCO[C@H]2Cn3cc(C(=O)NCc4ccc(F)cc4F)c(=O)c(O)c3C(=O)N12 [PCM-0214696]
-0.9 | CCCCCN(C)CCC(O)(P(=O)(O)O)P(=O)(O)O [PCM-0065595]

Structure (SMILES) | inhibition at 10 µM [%]
C=C(C)[C@@H]1CC[C@]2(C(=O)O)CC[C@]3(C)[C@H](CC[C@@H]4[C@@]5(C)CCC(=O)C(C)(C)[C@@H]5CC[C@]43C)[C@@H]12 [PCM-0215047] | 66.9
